Experimental data from ChEMBL document CHEMBL6087474, “Discovery of an Efficacious RET PROTAC Degrader with Enhanced Antiproliferative Activity against Resistant Cancer Cells Harboring RET Solvent-Front Mutations” (J Med Chem, 2025).
pIC50: −log10 of the molar value. Activity calls are given as the source filed them. No cut-off for these calls is given here.

Legend:
[1] = Induction of apoptosis in mouse BaF3 cells stably expressing KIF5B-RET-G810C mutant assessed as early apoptotic cells at 900 nM measured after 48 hrs by Annexin V-FITC/7-AAD staining based flow cytometric analysis (reference value: 8.57 %); type: functional
[2] = Induction of apoptosis in mouse BaF3 cells stably expressing wildtype KIF5B-RET fusion protein assessed as late apoptotic cells at 100 nM measured after 48 hrs by Annexin V-FITC/7-AAD staining based flow cytometric analysis (reference value: 1.03 %); type: functional
[3] = Induction of apoptosis in mouse BaF3 cells stably expressing KIF5B-RET-G810C mutant assessed as late apoptotic cells at 300 nM measured after 48 hrs by Annexin V-FITC/7-AAD staining based flow cytometric analysis (reference value: 1.96 %); type: functional
[4] = Effect on Shc protein level in mouse BaF3 cells stably expressing KIF5B-RET-G810C mutant assessed as fold change at 100 nM measured after 6 hrs by Western blot analysis (reference value: 1); type: functional
[5] = Induction of apoptosis in mouse BaF3 cells stably expressing KIF5B-RET-G810C mutant assessed as late apoptotic cells at 100 nM measured after 48 hrs by Annexin V-FITC/7-AAD staining based flow cytometric analysis (reference value: 1.96 %); type: functional
[6] = Effect on Shc protein level in mouse BaF3 cells stably expressing KIF5B-RET-V804M mutant assessed as fold change at 33.3 nM measured after 6 hrs by Western blot analysis (reference value: 1); type: functional
[7] = Effect on RET protein level in mouse BaF3 cells stably expressing KIF5B-RET-G810R mutant assessed as fold change at 300 nM measured after 6 hrs by Western blot analysis (reference value: 1); type: functional
[8] = Induction of apoptosis in mouse BaF3 cells stably expressing wildtype KIF5B-RET fusion protein assessed as early apoptotic cells at 100 nM measured after 48 hrs by Annexin V-FITC/7-AAD staining based flow cytometric analysis (reference value: 9.92 %); type: functional
[9] = test system: BaF3; assay: PROTAC activity at CRBN/CK1alpha in mouse BaF3 cells overexpressing KIF5B-RET assessed as induction of […] at 10 to 1000 nM incubated for 6 hrs by Western blot analysis; type: cell-based; conditions: dose 10-1000 nM
[10] = Induction of apoptosis in mouse BaF3 cells stably expressing wildtype KIF5B-RET fusion protein assessed as viable cells at 33.3 nM measured after 48 hrs by Annexin V-FITC/7-AAD staining based flow cytometric analysis (reference value: 86.65 %); type: functional; conditions: read-out: Activity
[11] = Induction of apoptosis in mouse BaF3 cells stably expressing wildtype KIF5B-RET fusion protein assessed as viable cells at 11.1 nM measured after 48 hrs by Annexin V-FITC/7-AAD staining based flow cytometric analysis (reference value: 86.65 %); type: functional; conditions: read-out: Activity
[12] = Potency index, ratio of selpercatinib IC50 to test compound IC50 for antiproliferative activity against mouse BaF3 cells stably expressing KIF5B-RET-G810R mutant incubated for 72 hrs by CCK-8 assay; type: functional
[13] = Induction of apoptosis in mouse BaF3 cells stably expressing wildtype KIF5B-RET fusion protein assessed as late apoptotic cells at 11.1 nM measured after 48 hrs by Annexin V-FITC/7-AAD staining based flow cytometric analysis (reference value: 1.03 %); type: functional
[14] = molecular target: Protein cereblon/Eukaryotic peptide chain release factor GTP-binding subunit ERF3A (Mus musculus) (UniProt Q8C7D2+Q8R050); assay: PROTAC activity at CRBN/GSPT1 in mouse BaF3 cells overexpressing KIF5B-RET assessed as induction of GSPT1 degradation at 10 to 1000 nM incubated for 6 hrs by Western blot analysis; type: cell-based; conditions: dose 10-1000 nM
Sequence of Protein cereblon/Eukaryotic peptide chain release factor GTP-binding subunit ERF3A (Mus musculus) (Q8C7D2 whole entry, looked up): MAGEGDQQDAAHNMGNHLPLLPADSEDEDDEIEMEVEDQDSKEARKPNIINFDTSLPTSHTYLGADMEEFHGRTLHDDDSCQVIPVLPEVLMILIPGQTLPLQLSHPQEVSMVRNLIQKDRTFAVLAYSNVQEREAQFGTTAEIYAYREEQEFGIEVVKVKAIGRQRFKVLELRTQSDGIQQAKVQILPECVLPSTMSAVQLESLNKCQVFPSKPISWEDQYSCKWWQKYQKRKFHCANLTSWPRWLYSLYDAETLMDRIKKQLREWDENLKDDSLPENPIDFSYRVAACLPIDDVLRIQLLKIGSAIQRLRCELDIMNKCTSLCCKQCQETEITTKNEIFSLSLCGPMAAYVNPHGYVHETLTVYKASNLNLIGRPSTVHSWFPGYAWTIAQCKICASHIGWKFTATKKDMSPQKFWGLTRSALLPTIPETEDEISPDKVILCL
Sequence of Protein cereblon/Eukaryotic peptide chain release factor GTP-binding subunit ERF3A (Mus musculus) (Q8R050 whole entry, looked up): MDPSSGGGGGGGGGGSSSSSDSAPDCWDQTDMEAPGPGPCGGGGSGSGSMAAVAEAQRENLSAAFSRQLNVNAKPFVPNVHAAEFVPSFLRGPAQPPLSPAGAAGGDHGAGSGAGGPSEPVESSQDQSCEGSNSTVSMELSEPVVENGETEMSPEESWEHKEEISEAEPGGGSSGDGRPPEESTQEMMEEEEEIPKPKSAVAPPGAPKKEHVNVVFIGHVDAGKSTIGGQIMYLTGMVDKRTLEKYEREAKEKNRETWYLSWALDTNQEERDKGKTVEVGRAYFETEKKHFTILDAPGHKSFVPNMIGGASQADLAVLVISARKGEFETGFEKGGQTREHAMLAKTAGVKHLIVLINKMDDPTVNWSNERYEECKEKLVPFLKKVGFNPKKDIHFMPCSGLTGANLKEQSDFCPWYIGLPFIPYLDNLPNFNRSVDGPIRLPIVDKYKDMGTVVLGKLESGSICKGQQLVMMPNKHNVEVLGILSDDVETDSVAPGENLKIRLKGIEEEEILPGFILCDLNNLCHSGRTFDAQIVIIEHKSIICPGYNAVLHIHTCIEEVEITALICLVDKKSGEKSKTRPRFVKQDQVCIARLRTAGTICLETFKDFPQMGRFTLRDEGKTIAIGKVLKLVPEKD

[15] = test system: BaF3; assay: Antiproliferative activity against mouse BaF3 cells stably expressing KIF5B-RET-G810S mutant incubated for 72 hrs by CCK-8 assay; type: functional, cell-based; conditions: BaF3, 72 h

Molecule COc1ccc(CN2C3CC2CN(c2ccc(-c4cc(-c5cnn(C6CCN(CCCCCC#Cc7cccc8c7CN(C7CCC(=O)NC7=O)C8=O)CC6)c5)cn5ncc(C#N)c45)cn2)C3)cn1 (stereo not given) has an Activity [1] of 54.08%, an Activity [2] of 0.99% and an Activity [3] of 2.91%. For the same molecule, the “fold change (FC)” value [4] was 1, the Activity [5] was 2.61% and the “fold change (FC)” value [6] was 1. For the same molecule, the “fold change (FC)” value [7] was 0.6, the Activity [8] was 33.58% and the Activity [9] was “inactive”. For the same molecule, the viability at 0.0333 µM [10] was 74.2%, the viability at 0.0111 µM [11] was 83.8% and the “Ratio IC50” value [12] was ~7. The Activity [13] was 1.84%, the Activity [14] was “inactive” and the pIC50 [15] was 7.05.
